Measured values from the supplement of paper PMC10307832.

What was measured:
Assay in all cases: relative viability (nuclei count vs DMSO), 5 days (fraction); higher = more cells survive
AT9283 + AZD7762 = compound: O=C(Nc1c[nH]nc1-c1nc2ccc(CN3CCOCC3)cc2[nH]1)NC1CC1 [AT9283] + NC(=O)Nc1cc(-c2cccc(F)c2)sc1C(=O)N[C@H]1CCCNC1 [AZD7762] (partner 0.2 µM)
How it was run: (§1)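 Nuclei were stained with Hoechst during a one-step fixation (final 0.05% Triton X-100, 1% formaldehyde, 1 ug/ml Hoechst) carried out 5 days after dosing, then counted on 4× images. The cells, lung cancer lines in 1536-well plates, had been dosed by pin tool the day after seeding with one drug alone or a fixed anchor-drug dose plus five library-drug doses (not always all listed) in √10 steps. Relative viability is the nuclei count in treated wells divided by that in vehicle wells, and each value is the median of duplicate plates.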

AT9283 + Crizotinib = compound: O=C(Nc1c[nH]nc1-c1nc2ccc(CN3CCOCC3)cc2[nH]1)NC1CC1 [AT9283] + C[C@@H](Oc1cc(-c2cnn(C3CCNCC3)c2)cnc1N)c1c(Cl)ccc(F)c1Cl [Crizotinib] (partner 1 µM)
How it was run: as §1

Erlotinib + OSI-027 = compound: C#Cc1cccc(Nc2ncnc3cc(OCCOC)c(OCCOC)cc23)c1 [Erlotinib] + COc1cccc2cc(-c3nc([C@H]4CC[C@H](C(=O)O)CC4)n4ncnc(N)c34)[nH]c12 [OSI-027] (partner 0.5 µM)
How it was run: as §1

AT9283 + Decitabine = compound: O=C(Nc1c[nH]nc1-c1nc2ccc(CN3CCOCC3)cc2[nH]1)NC1CC1 [AT9283] + Nc1ncn([C@H]2C[C@H](O)[C@@H](CO)O2)c(=O)n1 [Decitabine] (partner 2 µM)
How it was run: as §1

Erlotinib + Navitoclax = compound: C#Cc1cccc(Nc2ncnc3cc(OCCOC)c(OCCOC)cc23)c1 [Erlotinib] + CC1(C)CCC(c2ccc(Cl)cc2)=C(CN2CCN(c3ccc(C(=O)NS(=O)(=O)c4ccc(N[C@H](CCN5CCOCC5)CSc5ccccc5)c(S(=O)(=O)C(F)(F)F)c4)cc3)CC2)C1 [Navitoclax] (partner 0.5 µM)
How it was run: as §1

Cell Line | relative viability (AT9283 + AZD7762; first compound 0.003 µM) | relative viability (AT9283 + AZD7762; first compound 0.03 µM) | relative viability (AT9283 + AZD7762; first compound 0.09487 µM) | relative viability (AT9283 + AZD7762; first compound 0.3 µM) | relative viability (AT9283 + Crizotinib; first compound 0.003 µM) | relative viability (AT9283 + Crizotinib; first compound 0.03 µM) | relative viability (AT9283 + Crizotinib; first compound 0.09487 µM) | relative viability (AT9283 + Crizotinib; first compound 0.3 µM) | relative viability (Erlotinib + OSI-027; first compound 0.02 µM) | relative viability (Erlotinib + OSI-027; first compound 0.2 µM) | relative viability (Erlotinib + OSI-027; first compound 0.6325 µM) | relative viability (Erlotinib + OSI-027; first compound 2 µM) | relative viability (AT9283 + Decitabine; first compound 0.003 µM) | relative viability (AT9283 + Decitabine; first compound 0.03 µM) | relative viability (AT9283 + Decitabine; first compound 0.09487 µM) | relative viability (AT9283 + Decitabine; first compound 0.3 µM) | relative viability (Erlotinib + Navitoclax; first compound 0.02 µM) | relative viability (Erlotinib + Navitoclax; first compound 0.2 µM) | relative viability (Erlotinib + Navitoclax; first compound 0.6325 µM) | relative viability (Erlotinib + Navitoclax; first compound 2 µM)
H3255 | 0.832 | 0.746 | 0.548 | 0.211 | 0.909 | 0.77 | 0.471 | 0.146 | 0.638 | 0.345 | 0.207 | 0.202 | 0.577 | 0.556 | 0.352 | 0.222 | 0.449 | 0.147 | 0.0899 | 0.0743
ABC-1 | 0.83 | 0.365 | 1.18 | 0.229 | 1.03 | 0.238 | 0.182 | 0.193 | 0.582 | 0.386 | 0.361 | 0.346 | 1.3 | 0.513 | 0.346 | 0.346 | – | – | – | –
NCI-H1299 | – | – | – | – | 1.01 | 0.475 | 0.339 | 0.346 | – | – | – | – | – | – | – | – | 1.11 | 1.08 | 1.06 | 0.981
NCI-H1993 | 0.822 | 0.745 | 0.469 | 0.326 | 0.915 | 0.654 | 0.572 | 0.543 | 0.6 | 0.534 | 0.555 | 0.699 | 0.596 | 0.453 | 0.442 | 0.456 | 0.848 | 0.725 | 0.786 | 0.722
LOU-NH91 | 0.735 | 0.669 | 0.479 | 0.444 | 0.686 | 0.679 | 0.52 | 0.429 | 0.506 | 0.47 | 0.473 | 0.43 | 0.83 | 0.77 | 0.522 | 0.509 | 0.52 | 0.38 | 0.392 | 0.4
LC-2-ad | 0.848 | 0.794 | 0.398 | 0.227 | 0.44 | 0.275 | 0.288 | 0.238 | – | 0.837 | 0.725 | 0.475 | 0.872 | 0.685 | 0.471 | 0.255 | 0.488 | 0.472 | 0.397 | 0.229
HCC-15 | 1.26 | 1.19 | 0.926 | 0.255 | 0.765 | 0.478 | 0.139 | 0.129 | 0.702 | 0.736 | 0.676 | 0.588 | 0.604 | 0.309 | 0.182 | 0.126 | 0.735 | 0.68 | 0.736 | 0.617
NCI-H650 | 0.814 | 0.923 | 0.373 | 0.227 | 0.6 | 0.368 | 0.222 | 0.22 | 0.506 | 0.594 | 0.515 | 0.405 | 0.319 | 0.333 | 0.229 | 0.162 | – | – | – | –
NCI-H2009 | – | – | – | – | 0.967 | 0.446 | 0.26 | 0.248 | 0.759 | 0.653 | 0.65 | 0.414 | 0.378 | 0.358 | 0.225 | 0.222 | 1.25 | 1.24 | 1.24 | 1.19
COR-L 105 | – | – | – | – | 0.73 | 0.326 | 0.274 | 0.237 | 0.595 | 0.262 | 0.365 | 0.27 | 0.67 | 0.394 | 0.317 | 0.328 | 0.809 | 0.531 | 0.364 | 0.283
NCI-H1975 | 0.7 | 0.711 | 0.622 | 0.458 | 0.945 | 0.903 | 0.695 | 0.348 | 0.704 | 0.676 | 0.49 | 0.381 | 0.403 | 0.432 | 0.398 | 0.34 | 1.11 | 1.07 | 1.07 | 0.977
NCI-H1734 | 0.533 | 0.274 | 0.225 | 0.245 | 0.725 | 0.335 | 0.246 | 0.216 | 0.621 | 0.586 | 0.608 | 0.504 | 0.54 | 0.324 | 0.261 | 0.254 | 0.852 | 0.795 | 0.907 | 0.75
NCI-H838 | 0.968 | 0.705 | 0.612 | 0.655 | 0.877 | 0.367 | 0.246 | 0.186 | 0.421 | 0.474 | 0.359 | 0.319 | 0.436 | 0.293 | 0.265 | 0.226 | 1.26 | 1.11 | 1.27 | 1.05
LCLC-103H | 0.749 | 0.661 | 0.554 | 0.328 | 1.04 | 0.963 | 0.932 | 0.5 | 0.537 | 0.469 | 0.43 | 0.417 | 0.755 | 0.774 | 0.444 | 0.35 | – | – | – | –
NCI-H2023 | – | – | – | – | 0.704 | 0.471 | 0.196 | 0.123 | 0.428 | 0.338 | 0.285 | 0.192 | 0.202 | 0.202 | 0.127 | 0.0969 | 1.01 | 1.02 | 0.916 | 0.837
A-427 | 0.675 | 0.306 | 0.227 | 0.269 | 0.851 | 0.482 | 0.173 | 0.178 | 0.449 | 0.537 | 0.468 | 0.482 | 0.6 | 0.494 | 0.239 | 0.248 | 0.946 | 0.99 | 0.978 | 0.997
SK-MES-1 | – | – | – | – | 1.02 | 0.883 | 0.84 | 0.256 | 0.615 | 0.415 | 0.356 | 0.221 | 0.396 | 0.334 | 0.306 | 0.138 | 1.35 | 1.21 | – | 0.574
